Values of other authors as cited in US7750039B2, “Indoles are cannabinoid receptor ligands” (priority 2004, dated 2010).

What was measured:
[1] = tested on: CB1 receptor knockout mice
[2] = tested on: CB2 receptor knockout mice
[3] = tested on: apolipoprotein E knockout mice; settings: low doses, inhibited by SR144528
[4] = tested on: CB1 receptor-mediated CNS side effects; settings: at fully efficacious doses
animal models of pain = settings: acute thermal pain, persistent pain, inflammatory pain, neuropathic pain
microglial = settings: in vitro; blocked by SR144528
[5] = tested on: ovariectomy-induced bone loss in mice; settings: model for post-menopausal osteoporosis
[6] = tested on: rat formalin model of persistent pain
rodent models of pain = settings: neuropathic, incisional, chronic and acute inflammatory pain

For (−)-Δ^9-Tetrahydrocannabinol [Δ^9-THC], the analgesic efficacy [1] is listed as “retains some analgesic efficacy”, the immunosuppressive effects [2] is listed as “absent” and the “progression of atherosclerotic lesions” value [3] is listed as “slowed the progression of atherosclerotic lesions”.

In the case of `CN1CCCCC1Cn1cc(C(=O)c2cc([N+](=O)[O-])ccc2I)c2ccccc21` (centres unmarked) [AM-1241], the “CB1 receptor-mediated CNS side effects” value [4] is given as “devoid of typical CB1 receptor-mediated CNS side effects” and the analgesic efficacy (animal models of pain) is given as “robust analgesic efficacy”.

For `CCCC(C)(C)c1ccc2c(c1)OC(C)(C)[C@@H]1CC=C(C)C[C@@H]21` [JWH-133], the “β-amyloid-induced microglial activation and neurotoxicity” value (microglial) is listed as “abrogated”.

For SR144528, the ovariectomy-induced bone loss [5] is given as “reverse ovariectomy-induced bone loss” and the osteoclast activity (osteoclast) is given as “inhibit osteoclast activity”.

In the case of `CCCCCCC(C)(C)c1cc(OC)c([C@@H]2C=C(CO)[C@@H]3C[C@H]2C3(C)C)c(OC)c1` [HU-308], the antinociceptive response [6] is given as “elicits an antinociceptive response”.

For `COc1ccc2c(c1)c(CCN1CCOCC1)c(C)n2C(=O)c1cccc(Cl)c1Cl` [GW405833], the “CB1 receptor-mediated CNS side effects” value [4] is given as “devoid of typical CB1 receptor-mediated CNS side effects” and the “efficacy in pain models” value (rodent models of pain) is given as “efficacious”.
